According to the supplement of paper PMC10733146:

Key:
Experiment in all cases: viability relative to DMSO control (fraction); higher = less drug effect (more viable cells)
Settings in all cases: 48 h
[1] = tested on: primary AML patient cells (S002)
How it was run: (§1)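 Viability is given as CellTiter-Glo luminescence relative to the median of 16 inner DMSO wells. Fresh or cryopreserved primary mononuclear tumour cells from blood, bone marrow (both Ficoll-isolated) or processed lymph node were plated at 4 × 10^4 cells per well in 384-well plates against five pre-plated compound concentrations, one well each. Incubation lasted 48 h at 37 °C and 5% CO2 in RPMI-1640 with penicillin/streptomycin, L-glutamine and human serum.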

[2] = tested on: primary AML patient cells (S009)
How it was run: as §1

[3] = tested on: primary AML patient cells (S011)
How it was run: as §1

[4] = tested on: primary AML patient cells (S012)
How it was run: as §1

[5] = tested on: primary AML patient cells (S017)
How it was run: as §1

[6] = tested on: primary AML patient cells (S019)
How it was run: as §1

[7] = tested on: primary AML patient cells (S021)
How it was run: as §1

[8] = tested on: primary AML patient cells (S025)
How it was run: as §1

[9] = tested on: primary AML patient cells (S037)
How it was run: as §1

[10] = tested on: primary AML patient cells (S081)
How it was run: as §1

[11] = tested on: primary AML patient cells (S085)
How it was run: as §1

[12] = tested on: primary AML patient cells (S091)
How it was run: as §1

[13] = tested on: primary B-PLL patient cells (S016)
How it was run: as §1

[14] = tested on: primary BL patient cells (S005)
How it was run: as §1

[15] = tested on: primary FL patient cells (S022)
How it was run: as §1

[16] = tested on: primary FL patient cells (S087)
How it was run: as §1

[17] = tested on: primary MCL patient cells (S041)
How it was run: as §1

[18] = tested on: primary MCL patient cells (S053)
How it was run: as §1

[19] = tested on: primary MCL patient cells (S068)
How it was run: as §1

[20] = tested on: primary T-PLL patient cells (S008)
How it was run: as §1

CCc1nc(C(N)=O)c(Nc2ccc(N3CCC(N4CCN(C)CC4)CC3)c(OC)c2)nc1NC1CCOCC1 [Gilteritinib]
viability ([1]; 0.024 µM): 1.13
viability ([1]; 0.12 µM): 1.01
viability ([1]; 0.6 µM): 0.766
viability ([1]; 3 µM): 0.592
viability ([1]; 15 µM): 0.456
viability ([2]; 0.024 µM): 0.945
viability ([2]; 0.12 µM): 0.865
viability ([2]; 0.6 µM): 0.9
viability ([2]; 3 µM): 0.675
viability ([2]; 15 µM): 0.986
viability ([3]; 0.024 µM): 0.834
viability ([3]; 0.12 µM): 0.755
viability ([3]; 0.6 µM): 0.617
viability ([3]; 3 µM): 0.841
viability ([3]; 15 µM): 0.796
viability ([4]; 0.024 µM): 0.956
viability ([4]; 0.12 µM): 0.97
viability ([4]; 0.6 µM): 1
viability ([4]; 3 µM): 0.972
viability ([4]; 15 µM): 0.928
viability ([5]; 0.024 µM): 0.987
viability ([5]; 0.12 µM): 1.09
viability ([5]; 0.6 µM): 0.606
viability ([5]; 3 µM): 0.5
viability ([5]; 15 µM): 0.47
viability ([6]; 0.024 µM): 1.12
viability ([6]; 0.12 µM): 1.04
viability ([6]; 0.6 µM): 0.76
viability ([6]; 3 µM): 0.818
viability ([6]; 15 µM): 0.771
viability ([7]; 0.024 µM): 1.04
viability ([7]; 0.12 µM): 1.07
viability ([7]; 0.6 µM): 0.72
viability ([7]; 3 µM): 0.754
viability ([7]; 15 µM): 0.736
viability ([8]; 0.024 µM): 0.888
viability ([8]; 0.12 µM): 0.862
viability ([8]; 0.6 µM): 0.751
viability ([8]; 3 µM): 0.791
viability ([8]; 15 µM): 0.485
viability ([9]; 0.024 µM): 1.06
viability ([9]; 0.12 µM): 1.02
viability ([9]; 0.6 µM): 0.875
viability ([9]; 3 µM): 0.9
viability ([9]; 15 µM): 0.738
viability ([10]; 0.024 µM): 0.968
viability ([10]; 0.12 µM): 0.969
viability ([10]; 0.6 µM): 0.947
viability ([10]; 3 µM): 0.708
viability ([10]; 15 µM): 0.599
viability ([11]; 0.024 µM): 1.02
viability ([11]; 0.12 µM): 0.98
viability ([11]; 0.6 µM): 0.741
viability ([11]; 3 µM): 0.781
viability ([11]; 15 µM): 0.756
viability ([12]; 0.024 µM): 0.859
viability ([12]; 0.12 µM): 0.734
viability ([12]; 0.6 µM): 0.238
viability ([12]; 3 µM): 0.122
viability ([12]; 15 µM): 0.0937
viability ([13]; 0.024 µM): 0.818
viability ([13]; 0.12 µM): 0.819
viability ([13]; 0.6 µM): 0.875
viability ([13]; 3 µM): 0.911
viability ([13]; 15 µM): 0.654
viability ([14]; 0.024 µM): 0.957
viability ([14]; 0.12 µM): 0.96
viability ([14]; 0.6 µM): 0.739
viability ([14]; 3 µM): 0.667
viability ([14]; 15 µM): 0.536
viability ([15]; 0.024 µM): 1.01
viability ([15]; 0.12 µM): 0.925
viability ([15]; 0.6 µM): 0.907
viability ([15]; 3 µM): 0.789
viability ([15]; 15 µM): 0.358
viability ([16]; 0.024 µM): 1.09
viability ([16]; 0.12 µM): 1.06
viability ([16]; 0.6 µM): 0.865
viability ([16]; 3 µM): 0.807
viability ([16]; 15 µM): 0.422
viability ([17]; 0.024 µM): 0.934
viability ([17]; 0.12 µM): 0.882
viability ([17]; 0.6 µM): 0.705
viability ([17]; 3 µM): 0.647
viability ([17]; 15 µM): 0.406
viability ([18]; 0.024 µM): 1.07
viability ([18]; 0.12 µM): 1.02
viability ([18]; 0.6 µM): 0.7
viability ([18]; 3 µM): 0.707
viability ([18]; 15 µM): 0.733
viability ([19]; 0.024 µM): 1.63
viability ([19]; 0.12 µM): 2
viability ([19]; 0.6 µM): 1.89
viability ([19]; 3 µM): 1.27
viability ([19]; 15 µM): 0.689
viability ([20]; 0.024 µM): 0.952
viability ([20]; 0.12 µM): 0.909
viability ([20]; 0.6 µM): 0.886
viability ([20]; 3 µM): 0.787
viability ([20]; 15 µM): 0.935
